Common to all, as to assay: NCI-60 cell line screen, 48 h
Assay [1] relates to M14 melanoma.
Assay [2] relates to HOP-92 NSCLC.
Assay [3] deals with HL-60(TB) leukemia.
Assay [4] concerns HT29 colon.
The subject of assay [5] is OVCAR-4 ovarian.
Assay [6] concerns SK-MEL-5 melanoma.
The test system of assay [7] is A498 renal.
Assay [8] relates to RPMI-8226 leukemia.
For assay [9], the system named is IGROV1 ovarian.
Assay [10] deals with SF-295 CNS.

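Values below derive from 48-hour exposures of cells grown in 96-well plates, with endpoints linearly interpolated between the two concentrations bracketing the appropriate inhibition level. TGI: concentration producing complete growth inhibition.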

Regarding `Cc1ccc(NC(=O)C(=O)C2C(=O)NC(=O)NC2=O)c(C)c1`, the TGI in assay [1], in [2], in assay [3], in assay [4], in assay [5] and in [6] was over 100 µM throughout. The TGI in assay [7], in assay [8], in assay [9] and in [10] was over 100 µM throughout.

As for `COc1ccc2c(c1)c1ccc3c(c1n2C)C(=O)C=CC3=O`, the TGI in [1] was 24.3 µM; in assay [2] it was 14.5 µM; in assay [3], 4.94 µM; in assay [4] it was 34.9 µM; in assay [5], 15.6 µM; in assay [6], 43.6 µM. Moreover, the TGI is 53.5 µM in assay [7], 7.35 µM in [8], 28.3 µM in assay [9] and 56.9 µM in assay [10].

For `NC1=C(O)/C(=N/NS(=O)(=O)c2ccccc2)C(c2ccc3c(c2)OCO3)O1` (stereo not given), the TGI in [1], in [2], in assay [3], in [4], in [5] and in [6] was over 100 µM in each case. Also, the TGI in assay [7], in [8], in [9] and in assay [10] was over 100 µM each time.

These data come from PubChem BioAssay (NCI).
